target: T1, human glucocorticoid receptor (GR) complex (Homo sapiens, UniProt P04150); assay: Glucocorticoid receptor competitive binding assay (fluorescence polarization); details: competition with TAMRA-labeled dexamethasone, read-out: potent activity (IC50) in the GR binding assay
T1 construct: made in house; host or cells: insect expression system (baculovirus lysate)
T1 sequence (P04150 1-777): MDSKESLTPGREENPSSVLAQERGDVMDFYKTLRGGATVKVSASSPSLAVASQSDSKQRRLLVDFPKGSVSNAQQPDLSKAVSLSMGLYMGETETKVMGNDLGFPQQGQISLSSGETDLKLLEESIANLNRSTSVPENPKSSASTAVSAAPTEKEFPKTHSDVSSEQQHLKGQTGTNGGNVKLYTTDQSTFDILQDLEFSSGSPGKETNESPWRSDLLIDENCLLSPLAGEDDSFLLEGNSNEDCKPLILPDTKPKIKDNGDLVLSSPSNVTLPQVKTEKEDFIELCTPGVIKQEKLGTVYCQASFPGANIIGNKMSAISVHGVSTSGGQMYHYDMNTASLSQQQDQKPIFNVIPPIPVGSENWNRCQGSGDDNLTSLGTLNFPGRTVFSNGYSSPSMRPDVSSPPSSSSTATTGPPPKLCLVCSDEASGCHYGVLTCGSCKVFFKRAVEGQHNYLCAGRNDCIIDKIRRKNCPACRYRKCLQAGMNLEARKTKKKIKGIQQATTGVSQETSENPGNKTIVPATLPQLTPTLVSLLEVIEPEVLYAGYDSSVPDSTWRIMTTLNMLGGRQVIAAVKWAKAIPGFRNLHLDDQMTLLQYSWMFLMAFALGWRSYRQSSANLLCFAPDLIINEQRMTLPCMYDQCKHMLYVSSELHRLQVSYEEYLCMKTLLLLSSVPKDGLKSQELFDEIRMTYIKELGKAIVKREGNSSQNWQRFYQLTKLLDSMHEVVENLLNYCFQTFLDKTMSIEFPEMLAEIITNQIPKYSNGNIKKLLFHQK
In short: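 Human GR complex in baculovirus insect-cell lysate (1:170) competed against 15 nM TAMRA-dexamethasone stock for 1 h at room temperature. Buffer: TES/KCl/molybdate/EDTA/CHAPS/glycerol/DTT, pH 7.4, 1% DMSO final. FP read at 550/580 nm; IC50 from 4-parameter logistic fit.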

SMILES | IC50
Cc1cc(C)c(S(=O)(=O)NC(COc2cccc(C(F)(F)F)c2)C(F)(F)F)c(C)c1 (stereo not shown) [2,4,6-Trimethyl-N-[2,2,2-trifluoro-1-(3-trifluoromethylphenoxymethyl)ethyl]benzenesulfonamide] | ≤ 100 nM
CC[C@@H](CNc1ccc(C)cc1C)NS(=O)(=O)c1c(C)cc(C)cc1C [N-{(S)-1-[(2,4-Dimethylphenylamino)methyl]propyl}-2,4,6-trimethylbenzenesulfonamide] | ≤ 100 nM
Cc1cc(C)c(S(=O)(=O)NC(COc2cc(F)c(F)cc2F)C(F)(F)F)c(C)c1 (stereo not shown) [2,4,6-Trimethyl-N-[2,2,2-trifluoro-1-(2,4,5-trifluorophenoxymethyl)ethyl]benzenesulfonamide] | ≤ 100 nM
Cc1ccc(SCC(NS(=O)(=O)c2c(C)cc(C)cc2C)C(F)(F)F)c(C)c1 (stereo not shown) [N-[1-(2,4-Dimethylphenylsulfanylmethyl)-2,2,2-trifluoroethyl]-2,4,6-trimethylbenzenesulfonamide] | ≤ 100 nM
Cc1cc(C)c(S(=O)(=O)NC(CSc2ccc(Br)cc2OC(F)(F)F)C(F)(F)F)c(C)c1 (stereo not shown) [N-[1-(4-Bromo-2-trifluoromethoxyphenylsulfanylmethyl)-2,2,2-trifluoroethyl]-2,4,6-trimethylbenzenesulfonamide] | ≤ 100 nM
Cc1cc(C)c(S(=O)(=O)NC(COc2ccc(Cl)cc2Cl)C(F)(F)F)c(C)c1 (stereo not shown) [N-[1-(2,4-Dichlorophenoxymethyl)-2,2,2-trifluoroethyl]-2,4,6-trimethylbenzenesulfonamide] | ≤ 100 nM
Cc1cc(C)c(S(=O)(=O)NC(CNc2c(F)cc(F)cc2F)C(F)(F)F)c(C)c1 (stereo not shown) [2,4,6-Trimethyl-N-{2,2,2-trifluoro-1-[(2,4,6-trifluorophenylamino)methyl]ethyl}benzenesulfonamide] | ≤ 100 nM
COc1ccc(NCC(NS(=O)(=O)c2c(C)cc(C)cc2C)C(F)(F)F)c(OC)c1 (stereo not shown) [N-{1-[(2,4-Dimethoxyphenylamino)methyl]-2,2,2-trifluoroethyl}-2,4,6-trimethylbenzenesulfonamide] | ≤ 100 nM
Cc1cc(C)c(S(=O)(=O)NC(COc2cccc(OC(F)(F)F)c2)C(F)(F)F)c(C)c1 (stereo not shown) [2,4,6-Trimethyl-N-[2,2,2-trifluoro-1-(3-trifluoromethoxyphenoxymethyl)ethyl]benzenesulfonamide] | ≤ 100 nM
Cc1cc(C)c(S(=O)(=O)NC(CNc2ccc(C#N)cc2)C(F)(F)F)c(C)c1 (stereo not shown) [N-{1-[(4-Cyanophenylamino)methyl]-2,2,2-trifluoroethyl}-2,4,6-trimethylbenzenesulfonamide] | ≤ 100 nM
Cc1cc(C)c(S(=O)(=O)NC(COc2ccc(C)c(Cl)c2)C(F)(F)F)c(C)c1 (stereo not shown) [N-[1-(3-Chloro-4-methylphenoxymethyl)-2,2,2-trifluoroethyl]-2,4,6-trimethylbenzenesulfonamide] | ≤ 100 nM
Cc1cccc(NCC(NS(=O)(=O)c2c(C)cc(C)cc2C)C(F)(F)F)c1 (stereo not shown) [2,4,6-Trimethyl-N-[2,2,2-trifluoro-1-(m-tolylaminomethyl)ethyl]benzenesulfonamide] | ≤ 100 nM
Cc1cc(C)c(S(=O)(=O)NC(CNc2ccc(C#N)c(Cl)c2)C(F)(F)F)c(C)c1 (stereo not shown) [N-{1-[(3-Chloro-4-cyanophenylamino)methyl]-2,2,2-trifluoroethyl}-2,4,6-trimethylbenzenesulfonamide] | ≤ 100 nM
Cc1cc(C)c(S(=O)(=O)NC(COc2cc(F)ccc2Br)C(F)(F)F)c(C)c1 (stereo not shown) [N-[1-(2-Bromo-5-fluorophenoxymethyl)-2,2,2-trifluoroethyl]-2,4,6-trimethylbenzenesulfonamide] | ≤ 100 nM
Cc1cc(C)c(S(=O)(=O)NC(CSc2c(Cl)cccc2Cl)C(F)(F)F)c(C)c1 (stereo not shown) [N-[1-(2,6-Dichlorophenylsulfanylmethyl)-2,2,2-trifluoroethyl]-2,4,6-trimethylbenzenesulfonamide] | ≤ 100 nM
Cc1cc(C)c(S(=O)(=O)NC(COc2cccc(Cl)c2)C(F)(F)F)c(C)c1 (stereo not shown) [N-[1-(3-Chlorophenoxymethyl)-2,2,2-trifluoroethyl]-2,4,6-trimethylbenzenesulfonamide] | ≤ 100 nM
COc1ccccc1SCC(NS(=O)(=O)c1c(C)cc(C)cc1C)C(F)(F)F (stereo not shown) [2,4,6-Trimethyl-N-[2,2,2-trifluoro-1-(2-methoxyphenylsulfanylmethyl)ethyl]benzenesulfonamide] | ≤ 100 nM

SMILES | IC50
Cc1cc(C)c(S(=O)(=O)NC(CN(CCC#N)c2ccccc2)C(F)(F)F)c(C)c1 (stereo not shown) [N-(1-{[(2-Cyanoethyl)phenylamino]methyl}-2,2,2-trifluoroethyl)-2,4,6-trimethylbenzenesulfonamide] | ≤ 100 nM
Cc1cc(C)c(S(=O)(=O)NC(COc2ccc(C)cc2Cl)C(F)(F)F)c(C)c1 (stereo not shown) [N-[1-(2-Chloro-4-methylphenoxymethyl)-2,2,2-trifluoroethyl]-2,4,6-trimethylbenzenesulfonamide] | ≤ 100 nM
Cc1cc(C)c(S(=O)(=O)NC(COc2cccc(F)c2)C(F)(F)F)c(C)c1 (stereo not shown) [2,4,6-Trimethyl-N-[2,2,2-trifluoro-1-(3-fluorophenoxymethyl)ethyl]benzenesulfonamide] | ≤ 100 nM
Cc1cc(C)c(S(=O)(=O)NC(COc2ccc(F)cc2C)C(F)(F)F)c(C)c1 (stereo not shown) [2,4,6-Trimethyl-N-[2,2,2-trifluoro-1-(4-fluoro-2-methylphenoxymethyl)ethyl]benzenesulfonamide] | ≤ 100 nM
Cc1cc(C)c(S(=O)(=O)NC(CSc2ccc(Cl)cc2)C(F)(F)F)c(C)c1 (stereo not shown) [N-[1-(4-Chlorophenylsulfanylmethyl)-2,2,2-trifluoroethyl]-2,4,6-trimethylbenzenesulfonamide] | ≤ 100 nM
CCOc1cccc(SCC(NS(=O)(=O)c2c(C)cc(C)cc2C)C(F)(F)F)c1 (stereo not shown) [N-[1-(3-Ethoxyphenylsulfanylmethyl)-2,2,2-trifluoroethyl]-2,4,6-trimethylbenzenesulfonamide] | ≤ 100 nM
Cc1cc(C)c(S(=O)(=O)NC(CSc2cccc(Br)c2)C(F)(F)F)c(C)c1 (stereo not shown) [N-[1-(3-Bromophenylsulfanylmethyl)-2,2,2-trifluoroethyl]-2,4,6-trimethylbenzenesulfonamide] | ≤ 100 nM
Cc1cc(C)c(S(=O)(=O)NC(COc2cccc3c2CCC3=O)C(F)(F)F)c(C)c1 (stereo not shown) [2,4,6-Trimethyl-N-[2,2,2-trifluoro-1-(1-oxoindan-4-yloxymethyl)ethyl]benzenesulfonamide] | ≤ 100 nM
Cc1cc(C)c(S(=O)(=O)NC(CNc2cccc(Br)c2)C(F)(F)F)c(C)c1 (stereo not shown) [N-{1-[(3-Bromophenylamino)methyl]-2,2,2-trifluoroethyl}-2,4,6-trimethylbenzenesulfonamide] | ≤ 100 nM
Cc1cc(C)c(S(=O)(=O)NC(COc2ccc(Br)cc2C)C(F)(F)F)c(C)c1 (stereo not shown) [N-[1-(4-Bromo-2-methylphenoxymethyl)-2,2,2-trifluoroethyl]-2,4,6-trimethylbenzenesulfonamide] | ≤ 100 nM
Cc1cc(C)c(S(=O)(=O)NC(CNc2ccccc2)C(F)(F)F)c(C)c1 (stereo not shown) [2,4,6-Trimethyl-N-(2,2,2-trifluoro-1-phenylaminomethylethyl)benzenesulfonamide] | ≤ 100 nM
Cc1ccc(NCC(NS(=O)(=O)c2c(C)cc(C)cc2C)C(F)(F)F)c(C)c1 (stereo not shown) [N-{1-[(2,4-Dimethylphenylamino)methyl]-2,2,2-trifluoroethyl}-2,4,6-trimethylbenzenesulfonamide] | ≤ 100 nM
Cc1cc(C)c(S(=O)(=O)NC(CSc2ccc(F)cc2Cl)C(F)(F)F)c(C)c1 (stereo not shown) [N-[1-(2-Chloro-4-fluorophenylsulfanylmethyl)-2,2,2-trifluoroethyl]-2,4,6-trimethylbenzenesulfonamide] | ≤ 100 nM
Cc1cc(C)c(S(=O)(=O)NC(CNc2ccc(Cl)cc2)C(F)(F)F)c(C)c1 (stereo not shown) | ≤ 100 nM
Cc1cc(C)c(S(=O)(=O)NC(CNc2c(Cl)cccc2Cl)C(F)(F)F)c(C)c1 (stereo not shown) [N-{1-[(2,6-Dichlorophenylamino)methyl]-2,2,2-trifluoroethyl}-2,4,6-trimethylbenzenesulfonamide] | ≤ 100 nM
Cc1cc(C)c(S(=O)(=O)NC(CSc2ccccc2OC(F)(F)F)C(F)(F)F)c(C)c1 (stereo not shown) | ≤ 100 nM
Cc1cc(C)c(S(=O)(=O)NC(CSc2ccc(F)c(Cl)c2)C(F)(F)F)c(C)c1 (stereo not shown) [N-[1-(3-Chloro-4-fluorophenylsulfanylmethyl)-2,2,2-trifluoroethyl]-2,4,6-trimethylbenzenesulfonamide] | ≤ 100 nM

From patent US20100048950A1 (BOEHRINGER INGELHEIM INTERNATIONAL GMBH, priority 2007, published 2010)
